Measured values from patent US20160002204A1 (Board of Regents, The University of Texas System, priority 2014, published 2016).

Tests used:
[1] = biological target: T1, GLS1 (purified recombinant human GAC) (Homo sapiens, UniProt O94925); assay: GLS1 enzymatic activity assay (dual-coupled, Amplex UltraRed/resorufin); format: biochemical
T1 sequence (O94925 55-598 isoform O94925-3 limits assumed): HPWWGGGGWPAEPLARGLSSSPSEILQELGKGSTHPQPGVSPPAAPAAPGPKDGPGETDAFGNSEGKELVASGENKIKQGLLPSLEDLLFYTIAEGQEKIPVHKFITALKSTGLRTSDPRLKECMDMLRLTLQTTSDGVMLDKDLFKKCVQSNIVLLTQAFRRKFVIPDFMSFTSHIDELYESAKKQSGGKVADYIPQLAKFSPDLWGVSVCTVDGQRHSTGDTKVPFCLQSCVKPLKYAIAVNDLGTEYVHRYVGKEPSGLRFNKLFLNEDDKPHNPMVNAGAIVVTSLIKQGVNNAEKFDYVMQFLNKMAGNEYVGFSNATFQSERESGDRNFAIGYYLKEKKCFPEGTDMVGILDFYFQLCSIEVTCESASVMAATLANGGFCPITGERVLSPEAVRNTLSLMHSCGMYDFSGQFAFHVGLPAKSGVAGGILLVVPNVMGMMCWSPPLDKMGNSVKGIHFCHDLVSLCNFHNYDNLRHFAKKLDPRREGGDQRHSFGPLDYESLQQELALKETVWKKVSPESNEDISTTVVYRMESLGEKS
In short: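 In this coupled fluorometric format, phosphate-activated GAC (2 nM, 50 mM phosphate) is pre-exposed to compound for 10 min before 1 mM glutamine addition. Product is tracked as resorufin (530/590 nm) over time or at 20 min, and potency is derived by logistic fitting.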

A549 cells = assay: A549 proliferation (viability) assay, Cell Titer Fluor, 72 hours; format: cell-based; settings: Homo sapiens
In short: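 1000 A549 cells/well, RPMI 1640/10% dialyzed FBS, 24 h attach; compound 72 h, 0.5% DMSO, 37 °C/5% CO2; Cell Titer Fluor fluorescence; EC50 via 4-parameter logistic.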

| SMILES | IC50 [1] | EC50 (A549 cells) |
| --- | --- | --- |
| O=C(Nc1ccn(CCC(F)Cn2cc(C(=O)NCc3cc(C(F)(F)F)ccn3)nn2)c(=O)c1F)C(=O)c1ccccc1 (stereo not drawn) [Example 333, 1-{2-fluoro-4-[3-fluoro-2-oxo-4-(2-oxo-2-phenylacetamido)-1,2-dihydropyridin-1-yl]butyl}-N-{[4-(trifluoromethyl)pyridin-2-yl]methyl}-1H-1,2,3-triazole-4-carboxamide] | < 100 nM | < 100 nM |
| O=C(Cc1ccc(F)cc1F)Nc1ccn(CCC(F)Cn2cc(C(=O)NCc3cccc(OC(F)(F)F)c3)nn2)c(=O)c1F (stereo not drawn) [Example 334, 1-(4-{4-[2-(2,4-difluorophenyl)acetamido]-3-fluoro-2-oxo-1,2-dihydropyridin-1-yl}-2-fluorobutyl)-N-{[3-(trifluoromethoxy)phenyl]methyl}-1H-1,2,3-triazole-4-carboxamide] | < 100 nM | < 100 nM |
| O=C(Cc1c(F)cccc1F)Nc1ccn(CCC(F)Cn2cc(C(=O)NCc3cccc(OC(F)(F)F)c3)nn2)c(=O)c1F (stereo not drawn) [Example 335, l-(4-{4-[2-(2,6-difluorophenyl)acetamido]-3-fluoro-2-oxo-1,2-dihydropyridin-1-yl}-2-fluorobutyl)-N-{[3-(trifluoromethoxy)phenyl]methyl}-1H-1,2,3-triazole-4-carboxamide] | < 100 nM | 100 to 500 nM |
| O=C(CC1CCC1)Nc1ccn(CCC(F)Cn2cc(C(=O)NCc3cccc(C(F)(F)F)n3)nn2)c(=O)c1F (stereo not drawn) [Example 336, 1-{4-[4-(2-cyclobutylacetamido)-3-fluoro-2-oxo-1,2-dihydropyridin-1-yl]-2-fluorobutyl}-N-{[6-(trifluoromethyl)pyridin-2-yl]methyl}-1H-1,2,3-triazole-4-carboxamide] | < 100 nM | < 100 nM |
| CC(C(=O)Nc1ccn(CCC(F)Cn2cc(C(=O)NCc3cccc(OC(F)(F)F)c3)nn2)c(=O)c1F)N1CCCCC1 (stereo not drawn) [Example 337, 1-(2-fluoro-4-(3-fluoro-2-oxo-4-(2-(piperidin-1-yl)propanamido)pyridin-1(2H)-yl)butyl)-N-(3-(trifluoromethoxy)benzyl)-1H-1,2,3-triazole-4-carboxamide] | < 100 nM | < 100 nM |
| O=C(CN1CCCCC1)Nc1ccn(CCC(F)Cn2cc(C(=O)NCc3cccc(C(F)(F)F)n3)nn2)c(=O)c1F (stereo not drawn) [Example 338, 1-(2-fluoro-4-{3-fluoro-2-oxo-4-[2-(piperidin-1-yl)acetamido]-1,2-dihydropyridin-1-yl}butyl)-N-{[6-(trifluoromethyl)pyridin-2-yl]methyl}-1H-1,2,3-triazole-4-carboxamide] | 100 to 500 nM | 100 to 500 nM |
| O=C(CC1CCC1)Nc1ccn(CCC(F)Cn2cc(C(=O)NCc3cccc(OC(F)(F)F)c3)nn2)c(=O)c1F (stereo not drawn) [Example 339, 1-{4-[4-(2-cyclobutylacetamido)-3-fluoro-2-oxo-1,2-dihydropyridin-1-yl]-2-fluorobutyl}-N-{[3-(trifluoromethoxy)phenyl]methyl}-1H-1,2,3-triazole-4-carboxamide] | < 100 nM | < 100 nM |
| CC(C)(C)CC(=O)Nc1ccn(CCC(F)Cn2cc(C(=O)NCc3cccc(OC(F)(F)F)c3)nn2)c(=O)c1F (stereo not drawn) [Example 340, 1-{4-[4-(3,3-dimethylbutanamido)-3-fluoro-2-oxo-1,2-dihydropyridin-1-yl]-2-fluorobutyl}-N-{[3-(trifluoromethoxy)phenyl]methyl}-1H-1,2,3-triazole-4-carboxamide] | < 100 nM | < 100 nM |
| O=C(NCc1cccc(OC(F)(F)F)c1)c1cn(CC(F)CCn2ccc(NC(=O)C3CCCCC3)c(F)c2=O)nn1 (stereo not drawn) [Example 341, 1-[4-(4-cyclohexaneamido-3-fluoro-2-oxo-1,2-dihydropyridin-1-yl)-2-fluorobutyl]-N-{[3-(trifluoromethoxy)phenyl]methyl}-1H-1,2,3-triazole-4-carboxamide] | < 100 nM | < 100 nM |
